Data from PMC5762315, “Inhibition of polo-like kinase 4 (PLK4): a new therapeutic option for rhabdoid tumors and pediatric medulloblastoma” (Oncotarget, 2017).
Where “and” joins values, the source holds several entries; their conditions need not be identical. Equal entries are not always repeated.

Legend:
Assay in all cases: biochemical
Format in all cases: biochemical
various kinases [1] = biological target: various kinases (Homo sapiens, UniProt O76039); conditions: CDKL5
various kinases [2] = biological target: various kinases (Homo sapiens, UniProt P00519, F317L); conditions: ABL1 F317L
various kinases [3] = biological target: various kinases (Homo sapiens, UniProt P00533, C797S/L858R/T790M); conditions: EGFR (ErbB1) T790M C797S L858R
various kinases [4] = biological target: various kinases (Homo sapiens, UniProt P07948); conditions: LYN A
various kinases [5] = biological target: various kinases (Homo sapiens, UniProt P08581); conditions: MET (cMet)
various kinases [6] = biological target: various kinases (Homo sapiens, UniProt P11309); conditions: PIM1
various kinases [7] = biological target: various kinases (Homo sapiens, UniProt P17948); conditions: FLT1 (VEGFR1)
various kinases [8] = biological target: various kinases (Homo sapiens, UniProt P28482); conditions: MAPK1 (ERK2)
various kinases [9] = biological target: various kinases (Homo sapiens, UniProt P35968); conditions: KDR (VEGFR2)
various kinases [10] = biological target: various kinases (Homo sapiens, UniProt P43405); conditions: kinase SYK; ZLYTE
various kinases [11] = biological target: various kinases (Homo sapiens, UniProt P49840); conditions: GSK3A (GSK3 alpha)
various kinases [12] = biological target: various kinases (Homo sapiens, UniProt Q06187); conditions: BTK
various kinases [13] = biological target: T1, various kinases (Homo sapiens, UniProt Q06418); conditions: kinase TYRO3 (RSE); ZLYTE
T1 sequence (Q06418 41-890): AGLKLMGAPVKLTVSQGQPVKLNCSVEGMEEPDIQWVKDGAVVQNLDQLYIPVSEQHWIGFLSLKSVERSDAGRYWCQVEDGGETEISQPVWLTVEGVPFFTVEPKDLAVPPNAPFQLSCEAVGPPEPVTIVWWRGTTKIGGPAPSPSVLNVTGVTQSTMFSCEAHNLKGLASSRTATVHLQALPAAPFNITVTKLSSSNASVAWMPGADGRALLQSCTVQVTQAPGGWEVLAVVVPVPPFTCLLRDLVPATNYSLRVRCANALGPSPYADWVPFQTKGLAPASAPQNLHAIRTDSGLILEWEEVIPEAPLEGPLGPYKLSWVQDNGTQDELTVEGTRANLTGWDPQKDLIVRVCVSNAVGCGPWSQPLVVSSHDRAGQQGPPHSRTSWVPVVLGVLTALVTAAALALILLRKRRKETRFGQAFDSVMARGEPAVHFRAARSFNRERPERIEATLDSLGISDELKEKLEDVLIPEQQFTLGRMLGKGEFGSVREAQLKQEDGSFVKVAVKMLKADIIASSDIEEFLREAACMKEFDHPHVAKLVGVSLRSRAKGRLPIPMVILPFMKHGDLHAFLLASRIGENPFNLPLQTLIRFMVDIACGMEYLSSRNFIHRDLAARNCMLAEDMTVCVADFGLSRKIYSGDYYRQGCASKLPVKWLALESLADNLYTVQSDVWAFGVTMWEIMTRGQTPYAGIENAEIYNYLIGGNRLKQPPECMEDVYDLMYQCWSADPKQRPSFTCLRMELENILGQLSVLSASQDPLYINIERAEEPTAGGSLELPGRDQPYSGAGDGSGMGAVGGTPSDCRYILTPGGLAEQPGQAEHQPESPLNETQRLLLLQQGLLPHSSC

various kinases [14] = biological target: various kinases (Homo sapiens, UniProt Q14289); conditions: kinase PTK2B (FAK2); ZLYTE
Chain of various kinases (Homo sapiens, UniProt Q14289) (Q14289 whole entry): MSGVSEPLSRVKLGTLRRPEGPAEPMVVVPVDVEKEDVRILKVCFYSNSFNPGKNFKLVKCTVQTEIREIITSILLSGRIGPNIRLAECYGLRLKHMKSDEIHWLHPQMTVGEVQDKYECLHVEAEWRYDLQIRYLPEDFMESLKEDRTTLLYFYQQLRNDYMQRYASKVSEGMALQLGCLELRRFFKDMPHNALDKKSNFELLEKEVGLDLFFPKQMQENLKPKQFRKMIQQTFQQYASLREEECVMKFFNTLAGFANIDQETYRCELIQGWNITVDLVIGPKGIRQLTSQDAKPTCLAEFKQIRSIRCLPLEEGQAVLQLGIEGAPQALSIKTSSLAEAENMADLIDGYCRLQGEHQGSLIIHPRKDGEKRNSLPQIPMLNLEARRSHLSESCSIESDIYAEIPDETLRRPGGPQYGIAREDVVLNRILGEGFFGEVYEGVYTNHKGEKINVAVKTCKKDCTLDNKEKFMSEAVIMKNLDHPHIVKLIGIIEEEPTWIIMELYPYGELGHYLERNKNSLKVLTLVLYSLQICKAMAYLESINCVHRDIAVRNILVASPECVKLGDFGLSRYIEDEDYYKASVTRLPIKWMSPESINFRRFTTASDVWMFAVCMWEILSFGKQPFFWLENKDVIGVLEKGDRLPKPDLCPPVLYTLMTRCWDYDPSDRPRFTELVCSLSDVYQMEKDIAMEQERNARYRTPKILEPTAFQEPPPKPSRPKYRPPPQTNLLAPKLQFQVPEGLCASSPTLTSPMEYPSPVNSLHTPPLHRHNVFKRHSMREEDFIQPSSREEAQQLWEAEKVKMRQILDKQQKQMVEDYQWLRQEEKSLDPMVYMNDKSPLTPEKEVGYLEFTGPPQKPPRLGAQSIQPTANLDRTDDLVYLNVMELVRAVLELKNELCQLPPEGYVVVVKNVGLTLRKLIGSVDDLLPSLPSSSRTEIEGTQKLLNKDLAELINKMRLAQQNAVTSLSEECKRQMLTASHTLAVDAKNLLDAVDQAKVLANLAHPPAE

various kinases [15] = biological target: various kinases (Homo sapiens, UniProt Q15418); conditions: kinase RPS6KA1 (RSK1); ZLYTE
Chain of various kinases (Homo sapiens, UniProt Q15418) (Q15418 whole entry): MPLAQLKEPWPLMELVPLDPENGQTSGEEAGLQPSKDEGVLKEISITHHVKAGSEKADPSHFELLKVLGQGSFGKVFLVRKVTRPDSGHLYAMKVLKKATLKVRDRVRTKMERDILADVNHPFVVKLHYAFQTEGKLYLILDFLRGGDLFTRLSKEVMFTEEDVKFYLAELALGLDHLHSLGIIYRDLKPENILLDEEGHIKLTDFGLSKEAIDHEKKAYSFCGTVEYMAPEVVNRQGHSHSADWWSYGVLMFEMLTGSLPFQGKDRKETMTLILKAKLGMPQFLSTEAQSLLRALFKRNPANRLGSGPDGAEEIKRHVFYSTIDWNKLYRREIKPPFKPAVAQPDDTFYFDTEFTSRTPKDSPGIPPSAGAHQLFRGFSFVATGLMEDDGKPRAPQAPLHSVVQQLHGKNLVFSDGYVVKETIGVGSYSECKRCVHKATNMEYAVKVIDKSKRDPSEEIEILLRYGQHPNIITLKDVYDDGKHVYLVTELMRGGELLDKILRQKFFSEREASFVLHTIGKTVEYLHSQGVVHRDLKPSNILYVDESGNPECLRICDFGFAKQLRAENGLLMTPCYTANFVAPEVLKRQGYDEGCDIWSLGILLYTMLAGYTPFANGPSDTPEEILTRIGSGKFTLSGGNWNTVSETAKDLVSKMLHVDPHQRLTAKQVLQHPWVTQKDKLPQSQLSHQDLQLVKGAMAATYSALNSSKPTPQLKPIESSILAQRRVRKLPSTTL

various kinases [16] = biological target: various kinases (Homo sapiens, UniProt Q15759); conditions: MAPK11 (p38 beta)
various kinases [17] = biological target: various kinases (Homo sapiens, UniProt Q16512); conditions: kinase PKN1 (PRK1); ZLYTE
Chain of various kinases (Homo sapiens, UniProt Q16512) (Q16512 whole entry): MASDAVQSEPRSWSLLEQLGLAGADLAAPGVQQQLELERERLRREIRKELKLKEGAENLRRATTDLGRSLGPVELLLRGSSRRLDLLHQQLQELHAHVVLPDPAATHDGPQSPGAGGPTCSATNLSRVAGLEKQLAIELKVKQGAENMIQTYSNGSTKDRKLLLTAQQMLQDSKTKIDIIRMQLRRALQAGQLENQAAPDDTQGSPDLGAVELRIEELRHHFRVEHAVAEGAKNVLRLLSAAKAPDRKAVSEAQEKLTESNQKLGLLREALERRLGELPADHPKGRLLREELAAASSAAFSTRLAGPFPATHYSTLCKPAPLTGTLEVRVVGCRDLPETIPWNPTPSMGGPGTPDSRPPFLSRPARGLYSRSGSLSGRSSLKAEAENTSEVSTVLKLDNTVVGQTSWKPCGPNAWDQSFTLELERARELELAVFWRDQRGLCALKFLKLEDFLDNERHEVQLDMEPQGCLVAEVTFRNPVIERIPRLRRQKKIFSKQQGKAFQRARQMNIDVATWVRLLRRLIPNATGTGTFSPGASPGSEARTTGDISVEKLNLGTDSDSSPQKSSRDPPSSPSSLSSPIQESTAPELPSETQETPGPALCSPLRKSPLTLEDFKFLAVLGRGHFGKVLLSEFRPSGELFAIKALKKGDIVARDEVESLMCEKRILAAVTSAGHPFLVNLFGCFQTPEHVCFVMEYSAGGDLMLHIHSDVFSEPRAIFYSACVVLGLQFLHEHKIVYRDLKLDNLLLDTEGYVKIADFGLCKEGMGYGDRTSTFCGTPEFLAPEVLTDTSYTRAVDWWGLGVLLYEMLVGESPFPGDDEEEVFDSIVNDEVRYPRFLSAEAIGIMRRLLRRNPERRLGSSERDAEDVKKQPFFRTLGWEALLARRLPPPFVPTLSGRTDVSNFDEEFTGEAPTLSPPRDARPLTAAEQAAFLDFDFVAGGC

various kinases [18] = biological target: various kinases (Homo sapiens, UniProt Q6DT37); conditions: CDC42 BPG (MRCKG)
Chain of various kinases (Homo sapiens, UniProt Q6DT37) (Q6DT37 whole entry): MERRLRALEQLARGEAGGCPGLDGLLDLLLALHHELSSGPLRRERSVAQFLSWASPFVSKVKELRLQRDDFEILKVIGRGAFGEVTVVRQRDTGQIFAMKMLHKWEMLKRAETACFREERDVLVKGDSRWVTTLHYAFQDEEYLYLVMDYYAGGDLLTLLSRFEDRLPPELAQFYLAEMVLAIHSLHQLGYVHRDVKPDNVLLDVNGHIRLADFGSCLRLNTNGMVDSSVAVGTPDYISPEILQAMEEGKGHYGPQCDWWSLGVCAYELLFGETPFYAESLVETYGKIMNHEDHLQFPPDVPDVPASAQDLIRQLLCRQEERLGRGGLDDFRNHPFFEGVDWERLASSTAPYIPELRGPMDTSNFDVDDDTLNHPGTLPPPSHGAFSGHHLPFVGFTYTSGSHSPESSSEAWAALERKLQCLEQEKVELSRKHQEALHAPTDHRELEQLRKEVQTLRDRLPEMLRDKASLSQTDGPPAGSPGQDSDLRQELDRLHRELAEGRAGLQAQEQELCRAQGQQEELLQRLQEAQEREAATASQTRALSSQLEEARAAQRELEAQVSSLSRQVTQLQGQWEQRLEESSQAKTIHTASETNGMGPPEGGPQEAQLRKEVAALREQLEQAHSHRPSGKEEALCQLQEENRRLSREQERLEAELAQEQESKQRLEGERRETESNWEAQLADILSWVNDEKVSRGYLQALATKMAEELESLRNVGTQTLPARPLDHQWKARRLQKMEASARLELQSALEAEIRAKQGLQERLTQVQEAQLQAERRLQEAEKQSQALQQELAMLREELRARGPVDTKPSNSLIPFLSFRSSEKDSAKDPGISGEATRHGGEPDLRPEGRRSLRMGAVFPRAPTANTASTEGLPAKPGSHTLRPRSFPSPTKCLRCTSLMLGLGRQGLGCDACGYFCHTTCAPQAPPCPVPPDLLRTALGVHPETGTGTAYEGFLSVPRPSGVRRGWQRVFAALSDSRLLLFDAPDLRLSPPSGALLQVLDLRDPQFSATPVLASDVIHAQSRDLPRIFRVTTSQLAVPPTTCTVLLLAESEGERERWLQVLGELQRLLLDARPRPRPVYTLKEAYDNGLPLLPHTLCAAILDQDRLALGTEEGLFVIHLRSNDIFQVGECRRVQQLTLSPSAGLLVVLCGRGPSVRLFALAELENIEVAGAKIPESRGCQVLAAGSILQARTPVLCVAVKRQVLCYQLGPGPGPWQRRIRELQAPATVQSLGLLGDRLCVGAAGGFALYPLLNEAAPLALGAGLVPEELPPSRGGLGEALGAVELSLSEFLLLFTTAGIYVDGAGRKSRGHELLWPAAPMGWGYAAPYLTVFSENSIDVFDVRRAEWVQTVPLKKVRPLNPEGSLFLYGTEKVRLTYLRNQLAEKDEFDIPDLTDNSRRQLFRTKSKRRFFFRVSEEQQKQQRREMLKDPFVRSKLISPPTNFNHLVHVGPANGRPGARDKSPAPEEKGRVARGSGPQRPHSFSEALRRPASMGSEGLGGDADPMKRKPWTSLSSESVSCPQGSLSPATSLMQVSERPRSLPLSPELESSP

various kinases [19] = biological target: various kinases (Homo sapiens, UniProt Q8TD19); conditions: NEK9
various kinases [20] = biological target: various kinases (Homo sapiens, UniProt Q9H4B4); conditions: kinase PLK3; ZLYTE
Chain of various kinases (Homo sapiens, UniProt Q9H4B4) (Q9H4B4 whole entry): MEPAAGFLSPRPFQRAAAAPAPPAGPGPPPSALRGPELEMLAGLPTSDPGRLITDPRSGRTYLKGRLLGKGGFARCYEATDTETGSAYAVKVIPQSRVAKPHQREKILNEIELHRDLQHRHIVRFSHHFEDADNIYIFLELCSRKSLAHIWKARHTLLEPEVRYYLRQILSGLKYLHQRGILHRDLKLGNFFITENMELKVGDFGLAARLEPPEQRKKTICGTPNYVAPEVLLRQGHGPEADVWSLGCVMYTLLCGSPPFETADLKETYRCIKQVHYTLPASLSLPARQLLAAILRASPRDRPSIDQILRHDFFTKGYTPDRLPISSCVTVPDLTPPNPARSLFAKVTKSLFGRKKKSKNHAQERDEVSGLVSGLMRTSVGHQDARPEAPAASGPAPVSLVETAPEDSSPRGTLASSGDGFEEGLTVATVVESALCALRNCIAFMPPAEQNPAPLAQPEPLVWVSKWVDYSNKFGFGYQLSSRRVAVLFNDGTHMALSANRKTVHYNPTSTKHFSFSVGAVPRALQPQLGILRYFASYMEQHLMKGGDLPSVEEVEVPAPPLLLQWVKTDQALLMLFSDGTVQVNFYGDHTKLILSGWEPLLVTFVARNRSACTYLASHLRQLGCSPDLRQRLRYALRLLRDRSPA

various kinases [21] = biological target: various kinases (Homo sapiens, UniProt Q9Y4K4); conditions: MAP4K5 (KHS1)
Throughout, for % Inhibition Average: test concentration or dose not given here.
Throughout, for % Inhibition Duplicate #1: test concentration or dose not given here.
Throughout, for % Inhibition Duplicate #2: test concentration or dose not given here.

For COc1ccc2c(c1)[C@]1(C[C@H]1c1ccc3c(/C=C/c4ccc(CN5C[C@@H](C)O[C@@H](C)C5)cc4)n[nH]c3c1)C(=O)N2 [CFI-400945], the “% Inhibition” value (various kinases [1]) was 5%, the “% Inhibition” value (various kinases [2]) was 13% and 16% and the “% Inhibition” value (various kinases [3]) was 8% and 5%. The “% Inhibition” value (various kinases [4]) was 11% and 14%, the “% Inhibition” value (various kinases [5]) was 16% and 14% and the “% Inhibition” value (various kinases [6]) was 2% and 3%. For the same molecule, the “% Inhibition” value (various kinases [7]) was 0% and 1%, the “% Inhibition” value (various kinases [8]) was 9% and 7% and the “% Inhibition” value (various kinases [9]) was 16% and 15%. For the same molecule, the “% Inhibition Average” value (various kinases [10]) was 11%, the “% Inhibition Duplicate #1” value (various kinases [10]) was 11% and the “% Inhibition Duplicate #2” value (various kinases [10]) was 11%. The “% Inhibition” value (various kinases [11]) was 3% and 4%, the “% Inhibition” value (various kinases [12]) was 6% and 3% and the “% Inhibition Average” value (various kinases [13]) was 10%. The “% Inhibition Duplicate #1” value (various kinases [13]) was 10%, the “% Inhibition Duplicate #2” value (various kinases [13]) was 11% and the “% Inhibition Average” value (various kinases [14]) was 3%. For the same molecule, the “% Inhibition Duplicate #1” value (various kinases [14]) was 3%, the “% Inhibition Duplicate #2” value (various kinases [14]) was 3% and the “% Inhibition Average” value (various kinases [15]) was 7%. For the same molecule, the “% Inhibition Duplicate #1” value (various kinases [15]) was 7%, the “% Inhibition Duplicate #2” value (various kinases [15]) was 6% and the “% Inhibition” value (various kinases [16]) was 2% and 5%. The “% Inhibition Average” value (various kinases [17]) was 20%, the “% Inhibition Duplicate #1” value (various kinases [17]) was 27% and the “% Inhibition Duplicate #2” value (various kinases [17]) was 13%. For the same molecule, the “% Inhibition” value (various kinases [18]) was 0% and -1%, the “% Inhibition” value (various kinases [19]) was 10% and 4% and the “% Inhibition Average” value (various kinases [20]) was -2%. For the same molecule, the “% Inhibition Duplicate #1” value (various kinases [20]) was -7%, the “% Inhibition Duplicate #2” value (various kinases [20]) was 3% and the “% Inhibition” value (various kinases [21]) was 12% and 23%.
